Test results from patent publication US20140357512A1, “HISTONE DEACETYLASE (HDAC) BIOMARKERS IN MULTIPLE MYELOMA” (priority 2013, published 2014).

Tested on: human myeloma cell line MM.1S
Assay: CNP analysis: acetylated peptides in cytoplasm (C), soluble nuclear extract (N), insoluble nuclear pellet (P) of Compound B treated cells
Type: cell-based
Conditions: for change in quantity of acetylated peptide, C / fold change in quantity of acetylated peptide, C: cytoplasm (C), normalized to total (C+N+P); for C: change in quantity of acetylated peptide normalized to total (C+N+P) / C: fold change in quantity of acetylated peptide normalized to total (C+N+P): cytoplasm fraction; for P: change in quantity of acetylated peptide normalized to total (C+N+P) / P: fold change in quantity of acetylated peptide normalized to total (C+N+P): insoluble nuclear pellet; for N: change in quantity of acetylated peptide normalized to total (C+N+P) / N: fold change in quantity of acetylated peptide normalized to total (C+N+P): soluble nuclear extract
Method: This example describes the CNP analysis that was performed on Compound B treated cells from Example 1.
The SILAC method was performed as described in Example 1.
The harvested “heavy” and “light” labeled cells were initially lysed with 2×NETN buffer (200 mM NaCl, 100 mM Tris-Cl, 2 mM EDTA, 1.0% NP-40, pH 7.2) on ice for 15 min, respectively. The supernatants were saved after 20,000×g centrifugation for 10 minutes at 4° C. After measurement of the protein concentration in “heavy” or “light” labeled supernatants, equal amounts of crude proteins in supernatant were mixed, and the crude proteins were precipitated by adding trifluoroacetic acid (TFA) with 15% final concentration (v/v) (this was called the cytosolic fraction). After washing twice with −20° C. acetone, the proteins pellets were dissolved in 100 mM NH4HCO3 (pH 8.0) for trypsin digestion.
The remaining cell pellets were further lysed with 1×ETN buffer (100 mM NaCl, 50 mM Tris-Cl, 1 mM EDTA, pH 7.2) supplemented with 0.5% Triton X-100 on ice for 15 min, respectively. The resulting lysates were clarified by 20,000×g centrifugation for 10 minutes, and the supernatant was saved as nuclear extracts fractions. After measurement of the protein concentration in “heavy” or “light” labeled supernatant, equal amount of crude proteins in supernatant were mixed, and the crude proteins were precipitated by adding trifluoroacetic acid (TFA) with 15% final concentration (v/v) (this was called the nuclear extracts fraction). After washing twice with −20° C. acetone, the proteins pellets were dissolved in 100 mM NH4HCO3 (pH 8.0) for trypsin digestion.
The final remaining cell pellets were dissolved in 8 M urea to extract the chromatin-binding proteins. After measurement of protein concentration, equal amount of chromatin-binding proteins in urea solution were mixed, and the proteins were precipitated by adding trifluoroacetic acid (TFA) with 15% final concentration (v/v) (this was called the nuclear pellet fraction). After washing twice with −20° C. acetone, the proteins pellets were dissolved in 100 mM NH4HCO3 for trypsin digestion.
After trypsin digestion for the above three fractions, the Kac affinity enrichment followed by MS analysis and data inquiry were separately performed. The combined Kac data formed the total Kac profiling data in the pair of Compound B vs DMSO.
Compound B treated cell lysate was fractionated into three subcellular fractions—cytoplasm (C), soluble nuclear extract (N), and insoluble nuclear pellet (P), as described above. Any peptides identified as HDAC6 specific in Example 1 with this subcellular localization information was extremely helpful for understanding their functions inside cells.
The third, fourth, and fifth columns of Table 2 show data for Compound B. A “+” indicates a 1.3 fold change or greater in the quantity of peptide when normalized to the total (C+N+P=total) for each peptide for each drug treated group of cells. A “−” indicates a 1.29 fold change or less in the quantity of peptide when normalized to the total (C+N+P=total) for each peptide for each drug treated group of cells. “None” indicates unknown.
The sixth, seventh, and eighth columns of Table 2 show data for Compound B. The numbers in these columns represent the fold change in the quantity of peptide when normalized to the total (C+N+P=total) for each peptide for each drug treated group of cells. The numbers are in a log 2 scale so 1 represents a 2× change, 0 represents no change, and None represents unknown.

[1] = peptide AVLIDK(ac)DQSPK (SEQ ID NO: 577), gene HIBCH
[2] = peptide CSK(ac)LPSSTK(ac)SGWPR (SEQ ID NO: 711), gene PHF15
[3] = peptide DFGSFDK(ac)FK (SEQ ID NO: 709), gene SOD2
[4] = peptide INKALDK(ac)TK (SEQ ID NO: 802), gene MYH9
[5] = peptide K(ac)AINK(ac)AQK (SEQ ID NO: 793), gene HIST1H2BM
[6] = peptide KGEDFVK(ac)TLK (SEQ ID NO: 750), gene MDH2
[7] = peptide LENDK(ac)SFR (SEQ ID NO: 678), gene ECI1
[8] = peptide SELTGK(ac)FEK (SEQ ID NO: 778), gene ANXA5

## O=C(NO)c1cnc(NC2(c3cccc(F)c3)CCCCC2)nc1 [Compound B, 2-((1-(3-fluorophenyl)cyclohexyl)amino)-N-hydroxypyrimidine-5-carboxamide]
[1]
  change in quantity of acetylated peptide, C: − (A “−” indicates a 1.29 fold change or less in the quantity of peptide when normalized to the total (C+N+P=total))
  fold change in quantity of acetylated peptide, C: 0.00 log 2
Peptide FYK(ac)DVLEVGELAK (SEQ ID NO: 596), gene NAA50
  change in quantity of acetylated peptide, C: − (A “−” indicates a 1.29 fold change or less in the quantity of peptide when normalized to the total (C+N+P=total))
Peptide FYK(ac)[…] (SEQ ID NO: 596), gene NAA50
  fold change in quantity of acetylated peptide, C: 0.12 log 2
Peptide NCSSFLIK(ac)R (SEQ ID NO: 558), gene RPL28
  fold change in quantity of acetylated peptide, C: 0.05 log 2
Peptide VTCIDPNPNFEK(ac)FLIK (SEQ ID NO: 671), gene METTL7A
  change in quantity of acetylated peptide, C: + (A “+” indicates a 1.3 fold change or greater in the quantity of peptide when normalized to the total (C+N+P=total))
Peptide […](ac)FLIK (SEQ ID NO: 671), gene METTL7A
  fold change in quantity of acetylated peptide, C: 0.44 log 2
Peptide […](ac)QNK (SEQ ID NO: 650), gene DLD
  fold change in quantity of acetylated peptide, C: 0.18 log 2
[2]
  C: change in quantity of acetylated peptide normalized to total (C+N+P): − (A “−” indicates a 1.29 fold change or less in the quantity of peptide when normalized to the total (C+N+P=total))
  C: fold change in quantity of acetylated peptide normalized to total (C+N+P): 0.11 log 2 scale
  P: change in quantity of acetylated peptide normalized to total (C+N+P): + (A “+” indicates a 1.3 fold change or greater in the quantity of peptide when normalized to the total (C+N+P=total))
  P: fold change in quantity of acetylated peptide normalized to total (C+N+P): 0.43 log 2 scale
  N: change in quantity of acetylated peptide normalized to total (C+N+P): − (A “−” indicates a 1.29 fold change or less in the quantity of peptide when normalized to the total (C+N+P=total))
  N: fold change in quantity of acetylated peptide normalized to total (C+N+P): 0.04 log 2 scale
[3]
  C: change in quantity of acetylated peptide normalized to total (C+N+P): − (A “−” indicates a 1.29 fold change or less in the quantity of peptide when normalized to the total (C+N+P=total))
  C: fold change in quantity of acetylated peptide normalized to total (C+N+P): −0.28 log 2 scale
  P: change in quantity of acetylated peptide normalized to total (C+N+P): − (A “−” indicates a 1.29 fold change or less in the quantity of peptide when normalized to the total (C+N+P=total))
  N: change in quantity of acetylated peptide normalized to total (C+N+P): + (A “+” indicates a 1.3 fold change or greater in the quantity of peptide when normalized to the total (C+N+P=total))
  N: fold change in quantity of acetylated peptide normalized to total (C+N+P): −0.48 log 2 scale
[4]
  C: change in quantity of acetylated peptide normalized to total (C+N+P): − (A “−” indicates a 1.29 fold change or less in the quantity of peptide when normalized to the total (C+N+P=total))
  P: change in quantity of acetylated peptide normalized to total (C+N+P): − (A “−” indicates a 1.29 fold change or less in the quantity of peptide when normalized to the total (C+N+P=total))
  N: change in quantity of acetylated peptide normalized to total (C+N+P): + (A “+” indicates a 1.3 fold change or greater in the quantity of peptide when normalized to the total (C+N+P=total))
  N: fold change in quantity of acetylated peptide normalized to total (C+N+P): 4.75 log 2 scale
[5]
  C: change in quantity of acetylated peptide normalized to total (C+N+P): − (A “−” indicates a 1.29 fold change or less in the quantity of peptide when normalized to the total (C+N+P=total))
  P: change in quantity of acetylated peptide normalized to total (C+N+P): − (A “−” indicates a 1.29 fold change or less in the quantity of peptide when normalized to the total (C+N+P=total))
  P: fold change in quantity of acetylated peptide normalized to total (C+N+P): 0.27 log 2 scale
  N: change in quantity of acetylated peptide normalized to total (C+N+P): + (A “+” indicates a 1.3 fold change or greater in the quantity of peptide when normalized to the total (C+N+P=total))
  N: fold change in quantity of acetylated peptide normalized to total (C+N+P): −0.97 log 2 scale
[6]
  C: change in quantity of acetylated peptide normalized to total (C+N+P): − (A “−” indicates a 1.29 fold change or less in the quantity of peptide when normalized to the total (C+N+P=total))
  C: fold change in quantity of acetylated peptide normalized to total (C+N+P): 0.15 log 2 scale
  P: change in quantity of acetylated peptide normalized to total (C+N+P): − (A “−” indicates a 1.29 fold change or less in the quantity of peptide when normalized to the total (C+N+P=total))
  N: change in quantity of acetylated peptide normalized to total (C+N+P): + (A “+” indicates a 1.3 fold change or greater in the quantity of peptide when normalized to the total (C+N+P=total))
  N: fold change in quantity of acetylated peptide normalized to total (C+N+P): 0.49 log 2 scale
[7]
  C: change in quantity of acetylated peptide normalized to total (C+N+P): − (A “−” indicates a 1.29 fold change or less in the quantity of peptide when normalized to the total (C+N+P=total))
  C: fold change in quantity of acetylated peptide normalized to total (C+N+P): 0.12 log 2 scale
  P: change in quantity of acetylated peptide normalized to total (C+N+P): − (A “−” indicates a 1.29 fold change or less in the quantity of peptide when normalized to the total (C+N+P=total))
  N: change in quantity of acetylated peptide normalized to total (C+N+P): + (A “+” indicates a 1.3 fold change or greater in the quantity of peptide when normalized to the total (C+N+P=total))
  N: fold change in quantity of acetylated peptide normalized to total (C+N+P): −0.38 log 2 scale
[8]
  C: change in quantity of acetylated peptide normalized to total (C+N+P): − (A “−” indicates a 1.29 fold change or less in the quantity of peptide when normalized to the total (C+N+P=total))
  C: fold change in quantity of acetylated peptide normalized to total (C+N+P): 0.31 log 2 scale
  P: change in quantity of acetylated peptide normalized to total (C+N+P): − (A “−” indicates a 1.29 fold change or less in the quantity of peptide when normalized to the total (C+N+P=total))
  N: change in quantity of acetylated peptide normalized to total (C+N+P): + (A “+” indicates a 1.3 fold change or greater in the quantity of peptide when normalized to the total (C+N+P=total))
  N: fold change in quantity of acetylated peptide normalized to total (C+N+P): 0.40 log 2 scale
